Patent US8178658B2 (Dow AgroSciences, LLC, priority 2008, dated 2012)

Experiments:
[1] = test system: beet armyworm (BAW; Spodoptera exigua: Lepidoptera); assay: 96-well microtiter plate-based high throughput (HTS) diet bioassay on beet armyworm (BAW HTS); format: in vivo; conditions: BAW eggs, 12 μg test compound per well, mortality at 6 d post-treatment, mortality class
Summary of the method: (§1)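 Two diet-incorporation-style surface tests were run. Eggs infested treated diet (12 μg/well) in plates incubated dark at 29° C, with mortality taken on day 6 from six replicates. Separately, second-instar larvae fed on treated diet (50 μg/cm^2) at 25° C, 14:10 L:D, with six-day mortality averaged over eight wells.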

[2] = test system: beet armyworm (BAW; Spodoptera exigua: Lepidoptera); assay: 128-well diet tray assay on beet armyworm (BAW 50); format: in vivo; conditions: 128-well diet tray assay; 50 μg/cm^2 of test compound on diet; second instar BAW larvae; mortality class
Summary of the method: as §1

[3] = 96-well microtiter plate HTS diet assay

| SMILES | BAW HTS ([1]; 96-well HTS diet bioassay) | BAW HTS [1, 3] | BAW 50 ug/cm2 [2] |
| --- | --- | --- | --- |
| COC1C(C)OC(ON=Cc2ccc(-n3cnc(-c4ccc(C(F)(F)F)cc4)c3)cc2)C(OC)C1OC (stereo not drawn) [Compound 57] | A (the compound was tested and at least 50 percent mortality was observed) | A (the compound was tested and at least 50 percent mortality was observed) | A (the compound was tested and at least 50 percent mortality was observed) |
| COC1C(C)OC(ON=Cc2cccc(-c3cn(-c4ccc(OC(F)(F)F)cc4)cn3)c2)C(OC)C1OC (stereo not drawn) [Compound 58] | A (the compound was tested and at least 50 percent mortality was observed) | A (the compound was tested and at least 50 percent mortality was observed) | A (the compound was tested and at least 50 percent mortality was observed) |
| COC1C(C)OC(ON=Cc2ccc(-c3cn(-c4ccc(OC(F)(F)F)c(C(F)(F)F)c4)cn3)cc2)C(OC)C1OC (stereo not drawn) [Compound 59] | A (the compound was tested and at least 50 percent mortality was observed) | A (the compound was tested and at least 50 percent mortality was observed) | A (the compound was tested and at least 50 percent mortality was observed) |
| CCCc1ccc(-c2cc(-c3ccc(C=NOC4OC(C)C(OC)C(OC)C4OC)cc3)no2)cc1 (stereo not drawn) [Compound 60] | A (the compound was tested and at least 50 percent mortality was observed) | A (the compound was tested and at least 50 percent mortality was observed) | A (the compound was tested and at least 50 percent mortality was observed) |
| CCCCOc1ccc(-c2cc(-c3ccc(C=NOC4OC(C)C(OC)C(OC)C4OC)cc3)no2)cc1 (stereo not drawn) [Compound 61] | A (the compound was tested and at least 50 percent mortality was observed) | A (the compound was tested and at least 50 percent mortality was observed) | A (the compound was tested and at least 50 percent mortality was observed) |
| COc1ccc(-c2nc(-c3ccc(C=NOC4OC(C)C(OC)C(OC)C4OC)cc3)cs2)cc1 (stereo not drawn) [Compound 62] | A (the compound was tested and at least 50 percent mortality was observed) | A (the compound was tested and at least 50 percent mortality was observed) | A (the compound was tested and at least 50 percent mortality was observed) |
| COC1C(C)OC(ON=Cc2ccc(-c3csc(-c4ncc(C(F)(F)F)cc4Cl)n3)cc2)C(OC)C1OC (stereo not drawn) [Compound 63] | A (the compound was tested and at least 50 percent mortality was observed) | A (the compound was tested and at least 50 percent mortality was observed) | A (the compound was tested and at least 50 percent mortality was observed) |
| COC1C(C)OC(ON=Cc2ccc(-c3csc(-c4ccc(OCC(F)(F)F)nc4)n3)cc2)C(OC)C1OC (stereo not drawn) [Compound 64] | A (the compound was tested and at least 50 percent mortality was observed) | A (the compound was tested and at least 50 percent mortality was observed) | A (the compound was tested and at least 50 percent mortality was observed) |
| COC1C(C)OC(ON=Cc2ccc(-c3csc(-c4ccc(C(F)(F)F)cc4)n3)cc2)C(OC)C1OC (stereo not drawn) [Compound 65] | A (the compound was tested and at least 50 percent mortality was observed) | A (the compound was tested and at least 50 percent mortality was observed) | A (the compound was tested and at least 50 percent mortality was observed) |
| COC1C(C)OC(ON=Cc2ccc(-c3csc(-c4ccc(C(F)(F)F)nc4)n3)cc2)C(OC)C1OC (stereo not drawn) [Compound 66] | A (the compound was tested and at least 50 percent mortality was observed) | A (the compound was tested and at least 50 percent mortality was observed) | A (the compound was tested and at least 50 percent mortality was observed) |
| COC1C(C)OC(ON=Cc2ccc(-c3ccn(-c4ccc(OC(F)(F)F)cc4)c3)cc2)C(OC)C1OC (stereo not drawn) [Compound 67] | B (either (1) the compound was tested and less than 50 percent mortality was observed or (2) the compound was not tested) | B (either (1) the compound was tested and less than 50 percent mortality was observed or (2) the compound was not tested) | A (the compound was tested and at least 50 percent mortality was observed) |
| CCOC1C(OC)C(C)OC(ON=Cc2ccc(C3=NC(c4ccc(OC(F)(F)F)cc4)CO3)cc2)C1OC (stereo not drawn) [Compound 68] | B (either (1) the compound was tested and less than 50 percent mortality was observed or (2) the compound was not tested) | B (either (1) the compound was tested and less than 50 percent mortality was observed or (2) the compound was not tested) | A (the compound was tested and at least 50 percent mortality was observed) |
| CO[C@@H]1[C@@H](OC)[C@H](C)O[C@@H](O/N=C/c2ccc(-n3cnc(-c4ccc(Cl)cn4)n3)cc2)[C@@H]1OC [Compound 69] | B (either (1) the compound was tested and less than 50 percent mortality was observed or (2) the compound was not tested) | B (either (1) the compound was tested and less than 50 percent mortality was observed or (2) the compound was not tested) | B (either (1) the compound was tested and less than 50 percent mortality was observed or (2) the compound was not tested) |
| CO[C@@H]1[C@@H](OC)[C@H](C)O[C@@H](O/N=C/c2ccc(-n3cnc(-c4ccccc4F)n3)cc2)[C@@H]1OC [Compound 70] | A (the compound was tested and at least 50 percent mortality was observed) | A (the compound was tested and at least 50 percent mortality was observed) | B (either (1) the compound was tested and less than 50 percent mortality was observed or (2) the compound was not tested) |
| CO[C@@H]1[C@@H](OC)[C@H](C)O[C@@H](O/N=C/c2ccc(-n3cnc(-c4cccnc4)n3)cc2)[C@@H]1OC [Compound 71] | A (the compound was tested and at least 50 percent mortality was observed) | A (the compound was tested and at least 50 percent mortality was observed) | B (either (1) the compound was tested and less than 50 percent mortality was observed or (2) the compound was not tested) |
| COC1C(C)OC(ON=Cc2ccc(-n3cnc(-c4ccc(C(F)(F)F)cc4)n3)cc2)C(OC)C1OC (stereo not drawn) [Compound 72] | A (the compound was tested and at least 50 percent mortality was observed) | A (the compound was tested and at least 50 percent mortality was observed) | A (the compound was tested and at least 50 percent mortality was observed) |
| CO[C@@H]1[C@@H](OC)[C@H](C)O[C@@H](O/N=C/c2ccc(C3=NN(c4ccccc4)CC3)cc2)[C@@H]1OC [Compound 73] | B (either (1) the compound was tested and less than 50 percent mortality was observed or (2) the compound was not tested) | B (either (1) the compound was tested and less than 50 percent mortality was observed or (2) the compound was not tested) | A (the compound was tested and at least 50 percent mortality was observed) |
| CCCOC1C(OC)C(C)OC(ON=Cc2ccc(-n3cnc(-c4ccc(C(F)(F)F)cc4)n3)cc2)C1OC (stereo not drawn) [Compound 74] | B (either (1) the compound was tested and less than 50 percent mortality was observed or (2) the compound was not tested) | B (either (1) the compound was tested and less than 50 percent mortality was observed or (2) the compound was not tested) | A (the compound was tested and at least 50 percent mortality was observed) |
| COC1C(C)OC(ON=Cc2ccc(-c3cn(-c4ccc(Cl)cc4)nn3)cc2)C(OC)C1OC (stereo not drawn) [Compound 75] | A (the compound was tested and at least 50 percent mortality was observed) | A (the compound was tested and at least 50 percent mortality was observed) | B (either (1) the compound was tested and less than 50 percent mortality was observed or (2) the compound was not tested) |
| COC1C(C)OC(ON=Cc2ccc(-c3cn(-c4ccc(C)cc4)nn3)cc2)C(OC)C1OC (stereo not drawn) [Compound 76] | B (either (1) the compound was tested and less than 50 percent mortality was observed or (2) the compound was not tested) | B (either (1) the compound was tested and less than 50 percent mortality was observed or (2) the compound was not tested) | B (either (1) the compound was tested and less than 50 percent mortality was observed or (2) the compound was not tested) |
| COc1ccc(-n2cc(-c3ccc(C=NOC4OC(C)C(OC)C(OC)C4OC)cc3)nn2)cc1 (stereo not drawn) [Compound 77] | B (either (1) the compound was tested and less than 50 percent mortality was observed or (2) the compound was not tested) | B (either (1) the compound was tested and less than 50 percent mortality was observed or (2) the compound was not tested) | B (either (1) the compound was tested and less than 50 percent mortality was observed or (2) the compound was not tested) |
| COC1C(C)OC(ON=Cc2ccc(-c3cn(-c4ccc(C(F)(F)F)cc4)nn3)cc2)C(OC)C1OC (stereo not drawn) [Compound 78] | B (either (1) the compound was tested and less than 50 percent mortality was observed or (2) the compound was not tested) | B (either (1) the compound was tested and less than 50 percent mortality was observed or (2) the compound was not tested) | A (the compound was tested and at least 50 percent mortality was observed) |
| COC1C(C)OC(ON=Cc2ccc(-c3cn(-c4ccc(OC(F)(F)F)cc4)nn3)cc2)C(OC)C1OC (stereo not drawn) [Compound 79] | B (either (1) the compound was tested and less than 50 percent mortality was observed or (2) the compound was not tested) | B (either (1) the compound was tested and less than 50 percent mortality was observed or (2) the compound was not tested) | A (the compound was tested and at least 50 percent mortality was observed) |
